Laboratory results from patent publication US20230240297A1, “SELECTIVE HERBICIDES BASED ON SUBSTITUTED ISOXAZOLIN CARBOXAMIDES AND CYPROSULFAMIDE” (Bayer Aktiengesellschaft, priority 2020, published 2023).

Assays:
Format in all cases: in vivo, maize
ZEAMA Sileno [1] = assay: Seed treatment with safener; post-emergence herbicide application; set-up: Reduction [Difference]: scale not given here; details: Final assessment; for Reduction [%] / Reduction [Difference]: Cyprosulfamide 0.5 g a.i./kg seed; for Reduction [Difference]: damage without safener - damage with safener; for HER effect + SAF (crop damage with safener): Cyprosulfamide seed treatment 0.5 g a.i./kg seed; for HER effect (crop damage, herbicide without safener): no safener
Procedure: For the safener seed treatment, sufficient seeds of the respective crops (spring wheat, TRZAS; spring barley, HORVS; maize, ZEAMA) were weighed into screw top glass bottles approximately twice the volume of the seeds.
The specified safeners, formulated as wettable powder (WP) were weighed out so that the specified rates (g a.i./kg seed) would be obtained, dissolved in water (1 ml water per 10 g of seeds), and added to the seeds to produce a slurry.
The bottles were capped and then placed in an overhead shaker (set at medium speed for ca. 60 minutes) so that the seeds were evenly coated with the slurry. The bottles were uncapped and the seeds were either placed on paper and dried for an interval of 3-4 hours prior to sowing, or directly sown. Seeds were placed in sandy loam soil in pots of a diameter of 7-8 cm, covered with soil, and cultivated in a greenhouse under good growth conditions.
Post-emergence application of the specified herbicides was done when the plants had reached growth stage BBCH11-13, on two sets of plants:
a) seed treatment with safener, as described above b) no safener treatment
The herbicides were formulated as WP and sprayed onto the green parts of the plants as an aqueous suspension at an equivalent water application rate of 300 1/ha, with addition of wetting agent and adjuvants (e.g. Mero, 1.5 1/ha; ammonium sulphate, 2 kg/ha)
After application, the test plants were kept in the greenhouse under good growth conditions.
Values in the table below are mean values of at least 2 replicates.

ZEAMA Abraxas = assay: Tank-mix; post-emergence, crop damage with and without safener; details: for HER effect + SAF / HER effect: Final assessment; for HER effect: no safener
Procedure: (§1) Seeds of crops (spring wheat, TRZAS; spring barley, HORVS; maize, ZEAMA) were placed in sandy loam soil in peat pots, covered with soil and cultivated in a greenhouse under good growth conditions. Two to three weeks after sowing, the test plants were treated at the 1 to 3-leaf stage. The herbicide/safener active compound combinations according to the invention, formulated as wettable powders or emulsion concentrates, and, in parallel tests, the correspondingly formulated individual active compounds were sprayed onto the green parts of the plants in various dosages using an amount of water of 300 1/ha (converted).
(§2) The pots were returned under good growing conditions in a glasshouse and a visual assessment of herbicidal effects was made at intervals from 1 to 3 weeks after herbicide application (DAT = days after treatment). Assessment was on a percentage basis in comparison with untreated control plants (0% = no injury, 100% = complete kill).

ZEAMA Sileno [2] = assay: Treatment 1 day before (safener applied one day before herbicide, post-emergence); set-up: key to Reduction [Difference]: percentage points of visually scored % crop damage vs untreated control; details: for Reduction [%] / Reduction [Difference]: cyprosulfamide 100 g a.i./ha 1 day before; for HER effect + SAF: cyprosulfamide 100 g a.i./ha applied 1 day before; for HER effect + SAF / HER effect: Final assessment; for HER effect: no safener
Source text: Seeds of crops (spring wheat, TRZAS; spring barley, HORVS; maize, ZEAMA) were placed in sandy loam soil in pots of a diameter of 7-8 cm, covered with soil, and cultivated in a greenhouse under good growth conditions until plants were at the 1-3 leaf stage (BBCH 11-13). For split safener and herbicide treatment, first the safener was applied followed by the herbicide treatment on the following day. The safener and herbicides were formulated as WP and sprayed onto the green parts of the plants as an aqueous suspension at an equivalent water application rate of 300 1/ha, with addition of wetting agent and adjuvants (e.g. Mero, 1.5 1/ha; ammonium sulphate, 2 kg/ha). An equivalent set of plants was treated with the herbicides but without the prior safener treatment.
After application, the test plants were kept in the greenhouse under good growth conditions. 10 and 21 days after treatment (DAT) with the herbicide, % crop damage observed on the treated plants was scored visually in comparison to control plants that had not received any safener or herbicide treatment.

ZEAMA Sileno [3] = assay: Tank-mix; post-emergence, crop damage with and without safener; details: for HER effect + SAF / HER effect: Final assessment; for HER effect: no safener
Procedure: as §1, §2

[4] = HER 8 g a.i./ha, cyprosulfamide 50 g a.i./ha
[5] = HER 32 g a.i./ha, cyprosulfamide 100 g a.i./ha
[6] = HER dose 8 g a.i./ha + cyprosulfamide 50 g a.i./ha tank-mix
[7] = HER dose 32 g a.i./ha + cyprosulfamide 100 g a.i./ha tank-mix
[8] = HER 2 g a.i./ha, cyprosulfamide 50 g a.i./ha
[9] = HER dose 2 g a.i./ha + cyprosulfamide 50 g a.i./ha tank-mix

SMILES	Reduction [%] (ZEAMA Sileno [1]; HER dose 8 g a.i./ha)	Reduction [Difference] (ZEAMA Sileno [1]; HER dose 8 g a.i./ha)	HER effect + SAF (crop damage with safener) (ZEAMA Sileno [1]; HER dose 8 g a.i./ha)	HER effect (crop damage, herbicide without safener) (ZEAMA Sileno [1]; HER dose 8 g a.i./ha)	Reduction [%] (ZEAMA Sileno [1]; HER dose 32 g a.i./ha)	Reduction [Difference] (ZEAMA Sileno [1]; HER dose 32 g a.i./ha)	HER effect + SAF (crop damage with safener) (ZEAMA Sileno [1]; HER dose 32 g a.i./ha)	HER effect (crop damage, herbicide without safener) (ZEAMA Sileno [1]; HER dose 32 g a.i./ha)	Reduction [%] (ZEAMA Sileno [2]; HER 8 g a.i./ha)	Reduction [Difference] (ZEAMA Sileno [2]; HER 8 g a.i./ha)	Reduction [%] (ZEAMA Sileno [2]; HER 32 g a.i./ha)	Reduction [Difference] (ZEAMA Sileno [2]; HER 32 g a.i./ha)	HER effect + SAF (ZEAMA Sileno [2]; HER dose 8 g a.i./ha)	HER effect (ZEAMA Sileno [2]; HER dose 8 g a.i./ha)	HER effect + SAF (ZEAMA Sileno [2]; HER dose 32 g a.i./ha)	HER effect (ZEAMA Sileno [2]; HER dose 32 g a.i./ha)	Reduction [%] (ZEAMA Sileno [3]; [4])	Reduction [Difference] (ZEAMA Sileno [3]; [4])	HER effect + SAF (ZEAMA Sileno [3]; [6])	HER effect (ZEAMA Sileno [3]; HER dose 8 g a.i./ha)	other results
C=CC1(C(=O)NC2CC=C(C(=O)OC)C2)CC(c2cc(F)cc(F)c2)=NO1 (mixture of isomers) [Example 1.60]	94%	50	3%	53%	88%	57	8%	65%	–	–	–	–	–	–	–	–	–	–	–	–	Reduction [%] (ZEAMA Abraxas; [4]): 69%; Reduction [Difference] (ZEAMA Abraxas; [4]): 38; Reduction [%] (ZEAMA Abraxas; [5]): 79%; Reduction [Difference] (ZEAMA Abraxas; [5]): 74; HER effect + SAF (ZEAMA Abraxas; [6]): 17%; HER effect (ZEAMA Abraxas; HER dose 8 g a.i./ha): 55%; HER effect + SAF (ZEAMA Abraxas; [7]): 20%; HER effect (ZEAMA Abraxas; HER dose 32 g a.i./ha): 94%
CN(C)C(=O)SCCOC(=O)C1C=CC(NC(=O)C2(C)CC(c3cc(F)cc(F)c3)=NO2)C1 (stereo not drawn) [Example 1.29]	100%	60	0%	60%	93%	70	5%	75%	67%	40	73%	55	20%	60%	20%	75%	67%	40	20%	60%	Reduction [%] (ZEAMA Sileno [3]; [5]): 60%; Reduction [Difference] (ZEAMA Sileno [3]; [5]): 45; HER effect + SAF (ZEAMA Sileno [3]; [7]): 30%; HER effect (ZEAMA Sileno [3]; HER dose 32 g a.i./ha): 75%
CC1(C(=O)NC2C=CC(C(=O)O)C2)CC(c2cc(F)cc(F)c2)=NO1 (stereo not drawn) [Example 1.36]	94%	75	5%	80%	87%	65	10%	75%	69%	55	67%	50	25%	80%	25%	75%	63%	50	30%	80%	Reduction [%] (ZEAMA Sileno [2]; HER 2 g a.i./ha): 63%; Reduction [Difference] (ZEAMA Sileno [2]; HER 2 g a.i./ha): 25; HER effect + SAF (ZEAMA Sileno [2]; HER dose 2 g a.i./ha): 15%; HER effect (ZEAMA Sileno [2]; HER dose 2 g a.i./ha): 40%; Reduction [%] (ZEAMA Sileno [1]; HER dose 2 g a.i./ha): 88%; Reduction [Difference] (ZEAMA Sileno [1]; HER dose 2 g a.i./ha): 35; HER effect + SAF (crop damage with safener) (ZEAMA Sileno [1]; HER dose 2 g a.i./ha): 5%; HER effect (crop damage, herbicide without safener) (ZEAMA Sileno [1]; HER dose 2 g a.i./ha): 40%; Reduction [%] (ZEAMA Sileno [3]; [8]): 50%; Reduction [Difference] (ZEAMA Sileno [3]; HER 2 g a.i./ha, cyprosulfamide 50 g a.i./ha, damage without safener - damage with safener): 20; HER effect + SAF (ZEAMA Sileno [3]; [9]): 20%; HER effect (ZEAMA Sileno [3]; HER dose 2 g a.i./ha, 0% = no injury, 100% = complete kill): 40%
C=CC1(C(=O)NC2C=C(C(=O)OC)OC2)CC(c2cc(C)cc(C)c2)=NO1 (stereo not drawn) [Example 1.90]	73%	61	22%	83%	68%	64	30%	94%	–	–	–	–	–	–	–	–	–	–	–	–	Reduction [%] (ZEAMA Abraxas; [8]): 88%; Reduction [Difference] (ZEAMA Abraxas; [8]): 22; HER effect + SAF (ZEAMA Abraxas; [9]): 3%; HER effect (ZEAMA Abraxas; HER dose 2 g a.i./ha): 25%
